target: Carbonic anhydrase 9 (Homo sapiens, UniProt Q16790); experiment: Inhibition of human carbonic anhydrase 9 catalytic domain by CO2 hydration assay

| SMILES | Ki |
| --- | --- |
| CC(=O)O[C@@H]1O[C@H](COS(N)(=O)=O)[C@@H](OC(C)=O)[C@H](OC(C)=O)[C@H]1OC(C)=O | 73 nM |
| CCC(=O)O[C@@H]1O[C@H](COS(N)(=O)=O)[C@@H](OC(=O)CC)[C@H](OC(=O)CC)[C@H]1OC(=O)CC | 77 nM |
| CC(=O)O[C@@H]1O[C@H](COS(N)(=O)=O)[C@H](OC(C)=O)[C@H](OC(C)=O)[C@H]1OC(C)=O | 75 nM |
| CC(=O)OC[C@H]1O[C@@H](OC(C)=O)[C@H](OC(C)=O)[C@@H](OC(C)=O)[C@@H]1O[C@H]1O[C@H](COS(N)(=O)=O)[C@@H](OC(C)=O)[C@H](OC(C)=O)[C@H]1OC(C)=O | 631 nM |
| NS(=O)(=O)OC[C@H]1OC(O)[C@H](O)[C@@H](O)[C@H]1O (some centres not stated) | 62 nM |
| NS(=O)(=O)OC[C@H]1OC(O)[C@@H](O)[C@@H](O)[C@@H]1O (some centres not stated) | 53 nM |
| NS(=O)(=O)OC[C@H]1O[C@H](O[C@H]2[C@H](O)[C@@H](O)[C@H](O)O[C@@H]2CO)[C@H](O)[C@@H](O)[C@@H]1O | 497 nM |
| CC(=O)OC[C@H]1O[C@@H](S(N)(=O)=O)[C@H](OC(C)=O)[C@@H](OC(C)=O)[C@H]1OC(C)=O | 4150 nM |

Stronger by Ki, values ahead:

| Ki | SMILES |
| --- | --- |
| 7.8 nM | CC(=O)O[C@@H]1O[C@H](COS(N)(=O)=O)[C@@H](OC(C)=O)[C@H](OC(C)=O)[C@@H]1OC(C)=O |
| 8.4 nM | CO[C@H]1O[C@H](COS(N)(=O)=O)[C@@H](OC(C)=O)[C@H](OC(C)=O)[C@H]1OC(C)=O |
| 8.6 nM | NS(=O)(=O)OC[C@H]1OC(O)[C@H](O)[C@@H](O)[C@@H]1O (some centres not stated) |
| 9 nM | CO[C@H]1O[C@H](COS(N)(=O)=O)[C@@H](O)[C@H](O)[C@H]1O |

Source: ChEMBL document CHEMBL1687911, “Design, synthesis, and biological evaluation of novel carbohydrate-based sulfamates as carbonic anhydrase inhibitors” (J Med Chem, 2011)
